How the values were obtained:
Format in all cases: biochemical
[1] = test system: 5 consecutive nucleotides of T (Sequence 5T); test: Ability of incorporation into consecutive nucleotides of T (Sequence 5T), three consecutive injections; conditions: for Continuous incorporation into 5 consecutive T (luminescence derived from incomplete elongation): three injections
Description: (§1) Incorporation into nucleic acid was evaluated as follows. First, one of the above sequences was used as a target. Next, the primer was made to complementarily bind to the target. Then, an elongation experiment was carried out using the respective nucleic acid substrates for that sample. The synthesized nucleic acid substrate requires an affinity (complementary characteristics) with nucleotide T, and exclusivity of the other nucleotides (G, C, and A). The affinity with nucleotide T was evaluated using the Sequence TG and the primer. The exclusivity of the other nucleotides (G, C, and A) was evaluated using the respective Sequence GA, Sequence CG, and Sequence AG, and the primer. In addition, Sequence 5T was used for the evaluation of an ability of continuous incorporation into nucleotide T.
(§2) A sequencing method using a stepwise chemical reaction is described below. First, 35 μL of ultrapure water, 5 μL of oligo DNA (10 μM) of analysis object (target), and 5 μL of a primer (20 μM) were mixed with 5 μL of a hybridization buffer (10 mM Tris-Acetate, 20 mM Mg-Acetate, pH 7.75) (a sample solution: the final volume was 50 μL). Then, the sample solution was heated at 94° C. for 20 seconds, and reacted at a Tm temperature of the primer for 2 minutes. After that, 0.5 μL, (target: […], primer: […]) of this sample solution, 20 of a luminescence reagent which is designated in Condition 2 of Table 1, and 0.2 μL of a polymerase enzyme (the final concentration: 0.05 U/4) were mixed to prepare a reaction reagent (the final volume was 20.7 μL). To this reaction reagent was added 0.4 μL of 100 μM nucleic acid substrate (the final concentration 2 μM). When nucleic acid elongation occurs, bioluminescence derived from pyrophosphate of the elongation reaction product can be observed. The reaction has a luminescence peak a few seconds after the reaction initiation. […] This luminescence peak value is virtually proportional to the amount of generated pyrophosphate. Measurement of the peak value enables a degree of nucleic acid elongation to be estimated.
Next, by using Sequence 5T, the ability of incorporation of the respective synthetic substrates into consecutive nucleotides of T was evaluated by the following procedure. The reaction reagent was prepared by using Sequence 5T as a target oligo in the same manner as in the case of evaluation of elongation of one nucleotide as described before. In this case, a target oligo 111 and a primer 112 form a complementary strand binding as depicted in FIG. 11(1). Due to the above, when dATP is dispensed into this reaction reagent as a substrate, five molecules of the substrate are consecutively elongated per target molecule as a primer having the substrate at the 3′ end 113, thereby releasing five molecules of pyrophosphate. If the elongation for all the five nucleotides is not completed, a portion of the nucleotide T remains in a single-stranded state. Because of this, when substrate dATP is dispensed again, the portion is elongated only in the case where a portion of incomplete elongation remains. Therefore, the release of pyrophosphate can be detected as luminescence. […] In addition, substrate dCTP, which is complementary to nucleotide G 114, was subsequently dispensed twice to detect luminescence. […]

Sequence S1 = test: Sequence analysis by stepwise chemical reaction (pyrogram), ATP sulfurylase system, Condition 3; conditions: Sequence S1 (maximum two consecutive nucleotides); final concentration 2 μM
Description: Next, by using the developed substrates, nucleotide sequences were analyzed. FIG. 15 is pyrograms showing the results of sequence analysis using synthetic nucleotide A3d as a substitute for dATP in a sequencing method using a stepwise chemical reaction. The analyzed oligo Sequence S1 and a primer […] are described below.
Of note is that the Sequence P2 represents a primer sequence. This primer can complementarily bind to the underlined portion of the above Sequence S1. In addition, reagent conditions used for the sequence analysis were designated in Condition 3 of Table 1.
At the bottom of each diagram, the injected nucleic acid substrate species (the injected nucleotide type) were designated. Among the species, the substrate represented by “A” is A3d in (1) and dATPαS in (2), respectively. Also, at the top, nucleotide types which were incorporated in this oligo were designated. Specifically, the nucleotide types represent a complementary strand sequence that is an upstream sequence of the portion (the underlined portion of the Sequence S1) which complementarily binds to the primer P2. […] In addition, the broken lines represent standard values which convert the amount of the resulting luminescence into the number of nucleotides. For example, with regard to the above “CC”, the amount of luminescence equivalent to two nucleotides was observed. […]

[2] = test system: nucleotides G, C, and A (Sequence GA, Sequence CG, Sequence AG); test: Exclusivity of the other nucleotides (G, C, and A), elongation luminescence; conditions: CG, AG, luminescence normalized to dCTP, dGTP, dTTP as 1
Description: as §1, §2
Next, with regard to the respective synthetic substrates, the exclusivity of the other nucleotides (G, C, and A) was assessed using each of Sequence GA, Sequence CG, and Sequence AG and the primer. […] In addition, a background luminescence component of the respective substrates was compensated by taking its difference into account in a manner similar to that of the preceding figures.

Structure (SMILES) | Rate of Incomplete Elongation after the First Injection (%) ([1]; 5 consecutive nucleotides, final concentration 4 μM, E1 = luminescence of 2nd and 3rd injections / total of 1st to 3rd) | Rate of Incomplete Elongation after the Second Injection (%) ([1]; 5 consecutive nucleotides, final concentration 4 μM, E2 = luminescence of 3rd injection / total of 1st to 3rd) | Continuous incorporation into 5 consecutive T (luminescence derived from incomplete elongation) ([1]; final concentration 2 μM, then dCTP) | Continuous incorporation into 5 consecutive T (luminescence derived from incomplete elongation) ([1]; final concentration 4 μM (substrate amount doubled)) | Sequence analysis result as substitute for dATP (Sequence S1) | Exclusivity of the other nucleotides (G, C, and A) [2]
Nc1ncnc2c1ncn2[C@H]1C[C@H](O)[C@@H](COP(O)(=S)OP(=O)(O)OP(=O)(O)O)O1 (stereo partly shown) [dATPαS] | 36.8 ± 7.8 | 13.6 ± 5.1 | luminescence derived from incomplete elongation was detected even at the third injection | luminescence derived from incomplete elongation was detected at the third injection | can be used for a nucleotide sequence analysis | 
Nc1ncnc2c1c(/C=C/C(=O)NCCc1ccncc1)cn2[C@H]1CC(O)[C@@H](COP(=O)(O)OP(=O)(O)OP(=O)(O)O)O1 (stereo partly shown) [A3d] |  |  |  |  | can be used for a nucleotide sequence analysis | excellent exclusivity
